Measured values: patent US7833983B2, “Analytical method and kit thereof” (Phadia, AB, priority 2003, dated 2010)
Where “and” joins values, the source holds several entries; their conditions need not be identical. Equal values may be shown once. Values belong to the substance of their own block, whether it stands above or below them. Non-standard residues stand in square brackets, D forms with d. No end group written: not given here. Arg(Me2s) = CN=C(NC)NCCC[C@H](N)C(=O)O

Key:
anti-Sm antibodies [1] = test: Epitope-mapping with immobilized oligopeptides (peptide arrays) probed with anti-Sm sera; type: binding, human; settings: for number of anti-Sm sera recognizing the peptide: panel of five anti-Sm sera (#36, #37, #31, #84, #Sm), serum 1:100, ECL detection
Excerpt: The published sequences of SmD1, P13641, (Rokeach et al., 1988) and SmD3, P43331, (Lehmeier et al., 1994) were used to synthesize overlapping 15 mer peptides with a pipetting robot according to the protocol described by Gausepohl and Behn (2002). The C-terminal extensions of both polypeptides were synthesized with an offset of 2 amino acids (13 amino acids overlap). Each arginine containing peptide was synthesized as three variants, with natural arginine, with sDMA or with asymmetrical dimethylarginine (asDMA) at the respective positions. Later on, a highly reactive peptide of SmD3 was synthesized with certain combinations of natural arginine and sDMA. Following completion of the peptide synthesis non-specific binding sites were blocked by over-night incubation of the membranes in blocking buffer (BB) at room temperature (RT). After one washing step membranes were incubated with serum samples at a dilution of 1:100 in BB for 2 h at RT. Unbound antibodies were removed by three washing steps. For detection peroxidase conjugated goat-anti-human IgG antibody was diluted 1:5000 in BB and incubated for 75 min (RT). Superfluous secondary antibodies were removed by three washing steps. Finally, bound antibodies were visualized using the enhanced chemoluminiscence (ECL) detection-system.
Epitope fine-mapping of the C-terminal extensions of SmD1 and D3. To evaluate the effect of arginine-dimethylation on the antigenicity of SmD1 and SmD3 and to map relevant epitopes on both polypeptides a panel of anti-Sm sera was tested with peptide arrays (15 mer, 2 offset) covering the C-terminal region of SmD1 (P13641) and SmD3 (P43331).

anti-S33 antibodies = test: S33-peptide ELISA (Varelisa protocol) with patient and control sera; type: binding, human
Excerpt: (§1) Sera (n=628) were collected from patients suffering from systemic lupus erytlhrematosus (SLE; n=176), rheumatoid arthritis (RA, n=86), Sjögren syndrome (SS, n=24); mixed connective tissue disease (MCTD, n=26), scleroderma (SSc, n=26) and polymyositis/dermatomyositis (PM/DM, n=13). All patients were classified according to the ACR-criteria for each disease (Tan et al., 1982; Arnett et al., 1988). To further assess the assay specificity, we analyzed a group of sera from patients with infection diseases (n=77) including hepatitis-C (HCV; n=30), cytomegalo (CMV; n=22) and Epstein-Barr Virus (EBV; n=25) as well as from 192 healthy blood donors. All sera were stored at −80° C. until use. For epitope-mapping a panel of five sera containing anti-Sm antibodies was used. As negative controls autoimmune sera with other antibody specificities than anti-Sm were selected.
Preparation of ELISA-plates. The lyophilized S33 peptide was used to prepare a stock solution of 10 μg/μl, which was stored in aliquots at −20° C. until use. Binding of the peptide to ELISA plates was carried out using 2.5 μg/ml of the peptide in coating buffer in a final volume of 120 μl per well. The coating procedure was carried out at 15° C. for 20 h. Unspecific binding sites were blocked with blocking solution. After discarding the blocking solution solid phases were dried at 37° C. for 2 h and sealed.
The assay was performed according to the general protocol of the Varelisa® system (Pharmacia Diagnostics, Freiburg). […] The cut-off was technically set to 13 U/ml after ROC-analysis. PPVs and NPVs were calculated at different cut-off values. […]
A 15 amino acid soluble peptide displaying highest sensitivity and specificity in the SPOT-assay (^108AARGsdRGRGMGRGNIF^122) (SEQ ID NO: 1) was synthesized for technical reasons with an additional Cys at the C-terminus. This peptide was subsequently used to develop an ELISA system based on the general protocol of the Varelisa® tests (Pharmacia, Freiburg, Germany).

anti-Sm antibodies [2] = test: Correlation study: anti-S33 ELISA versus commercially available anti-Sm antibody tests; type: binding, human; settings: for Reactivity of control serum: suggested cut-off 13
Method: Randomly selected SLE sera (n=50) and various controls (n=100) were tested using the commercially available anti-Sm antibody tests from different suppliers (Sm test A—Sm Test D) and the results were compared to the findings of the anti-S33 ELISA test.

pI of the peptide = type: physicochemical
[3] = system: anti-centromere antibodies (ACA; serum CEN); test: Epitope-mapping with immobilized oligopeptides (peptide arrays) probed with control sera (e.g. CEN); type: binding, human; settings: serum 1:100
Excerpt: as §1
The published sequences of SmD1, P13641, (Rokeach et al., 1988) and SmD3, P43331, (Lehmeier et al., 1994) were used to synthesize overlapping 15 mer peptides with a pipetting robot according to the protocol described by Gausepohl and Behn (2002). The C-terminal extensions of both polypeptides were synthesized with an offset of 2 amino acids (13 amino acids overlap). […]

Lupus-prone mice = settings: injection; peptide fused to a carrier protein; Riemekasten et al., 2001; cited from earlier work
[4] = Rheumatic diseases (181), cut-off 13 U/ml
[5] = randomly selected SLE sera (n = 101)

Substance: AARG sdR GRGMGRGNIF (AARG[Arg(Me2s)]GRGMGRGNIF) [S33, SmD3 aa 108-122 mimotope peptide with a single symmetrical dimethylarginine at position 112; ELISA version with additional C-terminal Cys]
number of anti-Sm sera recognizing the peptide (anti-Sm antibodies [1]): all of the five
Mean value (anti-S33 antibodies; CMV (22)): 0.8 U/ml
Top value (anti-S33 antibodies; CMV (22)): 3.2 U/ml
No. of anti-S33-positive sera (anti-S33 antibodies; CMV (22), cut-off 13 U/ml): 0
Mean value (anti-S33 antibodies; EBV (25)): 0.78 U/ml
Top value (anti-S33 antibodies; EBV (25)): 3.3 U/ml
Mean value (anti-S33 antibodies; HCV (30)): 0.42 U/ml
Top value (anti-S33 antibodies; HCV (30)): 1.1 U/ml
No. of anti-S33-positive sera (anti-S33 antibodies; HCV (30), cut-off 13 U/ml): 0
Mean value (anti-S33 antibodies; Healthy individuals (192)): 2.2 U/ml and 2.21 U/ml
Top value (anti-S33 antibodies; Healthy individuals (192)): 11.5 U/ml
No. of anti-S33-positive sera (anti-S33 antibodies; Healthy individuals (192), cut-off 13 U/ml): 0
Mean value (anti-S33 antibodies; Infectious diseases (77)): 0.67 U/ml
Top value (anti-S33 antibodies; Infectious diseases (77)): 3.3 U/ml
No. of anti-S33-positive sera (anti-S33 antibodies; Infectious diseases (77), cut-off 13 U/ml): 0
Mean value (anti-S33 antibodies; MCTD (26)): 3.1 U/ml
Top value (anti-S33 antibodies; MCTD (26)): 12.8 U/ml
No. of anti-S33-positive sera (anti-S33 antibodies; MCTD (26), cut-off 13 U/ml): 0
Mean value (anti-S33 antibodies; PM/DM (13)): 2.8 U/ml
Top value (anti-S33 antibodies; PM/DM (13)): 9.6 U/ml
No. of anti-S33-positive sera (anti-S33 antibodies; PM/DM (13), cut-off 13 U/ml): 0
Mean value (anti-S33 antibodies; RA (86)): 1.6 U/ml
Top value (anti-S33 antibodies; RA (86)): 24.6 U/ml
% of anti-S33-positive sera (anti-S33 antibodies; RA (86), cut-off 13 U/ml): (1.2) %
No. of anti-S33-positive sera (anti-S33 antibodies; RA (86), cut-off 13 U/ml): 1
Mean value (anti-S33 antibodies; Rheumatic diseases (181)): 2.2 U/ml
Top value (anti-S33 antibodies; Rheumatic diseases (181)): 24.6 U/ml
% of anti-S33-positive sera (anti-S33 antibodies; [4]): (0.6) %
No. of anti-S33-positive sera (anti-S33 antibodies; [4]): 1
Mean value (anti-S33 antibodies; SLE (n = 176)): 43 U/ml and 43.0 U/ml
No. of anti-S33-positive sera (anti-S33 antibodies; SLE (n = 176), cut-off 13 U/ml): 28 and 15
anti-S33 peptide reactivity (anti-S33 antibodies; SLE patient #89, anti-SmD negative): 15.4 units
anti-S33 peptide reactivity (anti-S33 antibodies; SLE patient #92, anti-SmD negative): 21.3 units
anti-S33 peptide reactivity (anti-S33 antibodies; SLE patient #9811, anti-SmD negative): 13.9 units
anti-S33 peptide reactivity (anti-S33 antibodies; SLE patient #20627, anti-SmD negative): 41.3 units
immunoresponse to the new Sm antigen (S33) (anti-S33 antibodies; SLE patient, beginning of the 18 month follow-up study, inactive phase of disease): 337.5 U/ml
Mean value (anti-S33 antibodies; SSc (26)): 2.4 U/ml
Top value (anti-S33 antibodies; SSc (26)): 4.3 U/ml
No. of anti-S33-positive sera (anti-S33 antibodies; SSc (26), cut-off 13 U/ml): 0
reactivity range (anti-S33 antibodies; blood donors): 0.4-11.5 U/ml
% of control sera tested positive (anti-S33 antibodies; controls (n=449), cut-off 13 U/ml): 0.2%
Mean value (anti-S33 antibodies; pSS (24)): 1.9 U/ml
Top value (anti-S33 antibodies; pSS (24)): 3.9 U/ml
No. of anti-S33-positive sera (anti-S33 antibodies; pSS (24), cut-off 13 U/ml): 0
S33+ among sera with Aab to La (%) (anti-S33 antibodies; [5]): 18.2%
S33+ among sera with Aab to La (number) (anti-S33 antibodies; [5]): 4/22
S33+ among sera with Aab to Ro-52 (%) (anti-S33 antibodies; [5]): 22.7%
S33+ among sera with Aab to Ro-52 (number) (anti-S33 antibodies; [5]): 5/22
S33+ among sera with Aab to Ro-60 (%) (anti-S33 antibodies; [5]): 25%
S33+ among sera with Aab to Ro-60 (number) (anti-S33 antibodies; [5]): 12/48
S33+ among sera with Aab to SmBB′ (%) (anti-S33 antibodies; [5]): 50%
S33+ among sera with Aab to SmBB′ (number) (anti-S33 antibodies; [5]): 11/22
S33+ among sera with Aab to SmD (%) (anti-S33 antibodies; [5]): 68.8%
S33+ among sera with Aab to SmD (number) (anti-S33 antibodies; [5]): 11/16
S33+ among sera with Aab to U1-68 kD (%) (anti-S33 antibodies; [5]): 50%
S33+ among sera with Aab to U1-A (%) (anti-S33 antibodies; [5]): 48%
S33+ among sera with Aab to U1-A (number) (anti-S33 antibodies; [5]): 12/25
S33+ among sera with Aab to U1-C (%) (anti-S33 antibodies; [5]): 42.3%
S33+ among sera with Aab to U1-C (number) (anti-S33 antibodies; [5]): 11/26
S33+ among sera with Aab to dsDNA (%) (anti-S33 antibodies; [5]): 25.5%
S33+ among sera with Aab to dsDNA (number) (anti-S33 antibodies; [5]): 13/51
S33+ among sera with Aab to histone (%) (anti-S33 antibodies; [5]): 26.3%
S33+ among sera with Aab to histone (number) (anti-S33 antibodies; [5]): 10/38
S33+ among sera with Aab to β2-Glycoprotein (%) (anti-S33 antibodies; [5]): 25%
S33+ among sera with Aab to β2-Glycoprotein (number) (anti-S33 antibodies; [5]): 4/16
% of SLE sera positive (anti-Sm antibodies [2]; 50 randomly selected SLE sera): 12%
number of SLE sera positive (anti-Sm antibodies [2]; 50 randomly selected SLE sera): 6
% of controls positive (anti-Sm antibodies [2]; 100 controls): 0%
number of controls positive (anti-Sm antibodies [2]; 100 controls): none
Reactivity of control serum (anti-Sm antibodies [2]; serum No. 105, ID 25516, MCTD): 3.0 U/ml
Reactivity of control serum (anti-Sm antibodies [2]; serum No. 107, ID 25518, MCTD): 1.0 U/ml
Reactivity of control serum (anti-Sm antibodies [2]; serum No. 108, ID 25519, MCTD): 0.0 U/ml
Reactivity of control serum (anti-Sm antibodies [2]; serum No. 110, ID 25521, MCTD): 0.5 U/ml
Reactivity of control serum (anti-Sm antibodies [2]; serum No. 112, ID 25523, MCTD): 0.0 U/ml
Reactivity of control serum (anti-Sm antibodies [2]; serum No. 121, ID 25532, MCTD): 2.6 U/ml
Reactivity of control serum (anti-Sm antibodies [2]; serum No. 123, ID 25534, MCTD): 1.1 U/ml
Reactivity of control serum (anti-Sm antibodies [2]; serum No. 126, ID 25537, MCTD): 3.2 U/ml
Reactivity of control serum (anti-Sm antibodies [2]; serum No. 128, ID 25539, MCTD): 0.7 U/ml
Reactivity of control serum (anti-Sm antibodies [2]; serum No. 129, ID 25540, MCTD): 4.1 U/ml
Reactivity of control serum (anti-Sm antibodies [2]; serum No. 132, ID 25543, MCTD): 2.4 U/ml
Reactivity of control serum (anti-Sm antibodies [2]; serum No. 133, ID 25544, MCTD, SLE): 9.9 U/ml
Reactivity of control serum (anti-Sm antibodies [2]; serum No. 137, ID 25448, SSc): 2.2 U/ml
Reactivity of control serum (anti-Sm antibodies [2]; serum No. 145, ID 25456, MCTD): 1.1 U/ml
pI (pI of the peptide): > 12.88
antibody binding of control sera [3]: not with the controls

Substance: AAsdRGsdRGsdRGMGsdRGNIF (AA[Arg(Me2s)]G[Arg(Me2s)]G[Arg(Me2s)]GMG[Arg(Me2s)]GNIF) [peptide no. 77, SmD3 aa 108-122 with all arginines as sDMA]
number of anti-Sm sera recognizing the peptide (anti-Sm antibodies [1]): three out of five
number of anti-Sm sera recognizing the peptide (anti-Sm antibodies [1]; listed as SEQ ID NO: 3): Three out of five

binding of anti-Sm antibodies (in words) (anti-Sm antibodies [1]; anti-SmD sera #36, #37, #31, #84, #Sm, peptide arrays): strong reactivity
Substance: KREAVAGRGRGRGRG [compound 10, SmD1 array peptide; text describes glycine and DMA repeats]

Substance: synthetic peptide corresponding to the C-terminal extension of SmD1: literature SmD1 aa 83-119 peptide (Riemekasten et al., 1998) used in an ELISA (VEPKVKSKKREAVAGRGRGRGRGRGRGRGRGRGGPRR; UniProt P62314 83-119, looked up, fragment)
effect on the pathogenic process of Lupus-prone mice (Lupus-prone mice): accelerate the pathogenic process
